Measurements from US20230278997A1, “BICYCLO[1.1.1]PENTANE COMPOUNDS FOR THE TREATMENT AND PROPHYLAXIS OF HEPATITIS B VIRUS INFECTION” (Hoffmann-La Roche Inc., priority 2020, published 2023).

Legend:
HBsAg = test: microbe, parasite or virus in culture; format: cell-based, HBV; conditions: Hepatitis B virus, read-out: HBsAg IC50
[1] = test system: primary human hepatocyte (PHH); test: Cytotoxicity in PHH natural infection assay (Cell Counting Kit-8); format: cell-based; conditions: therapeutic index; CC50 by CCK8 in PHH over HBsAg IC50
Protocol: Detailed procedures regarding primary human hepatocyte (PHH) HBV natural infection assay are described as below. One tube of frozen PHH (10 million cells) was thawed in 37° C. water bath and then transferred to 20 mL of PHH thawing medium (Sigma, InVitroGRO HT Medium, Cat. 503319) with gently mixing. The cells were then centrifuged at […] for 5 min, the supernatant was discarded and the tube was refilled with 25 mL of PHH plating medium (Sigma, InVitroGRO CP Medium, Cat. 503317). The tube was shaken very gently to re-suspend all cells, and then 50 μl of cells were transferred to each well of a 384-well collagen I coated plate with appropriate liquid handling equipment, e.g. Integra VIAFLO384 or Agilent Bravo. The cells were then cultured for 24 hours in a cell incubator. For HBV infection, after PHH attachment on the culture plate, the plating medium was removed and replenished with PHH culture medium containing HBV virus. The PHH culture medium was prepared with Dulbecco's Modified Eagle Medium (DMEM)/F12 (1:1 in volume ratio) containing 10% fetal bovine serum (Gibco, Cat.10099141), 5 ng/mL human epidermal growth factor (Gibco, Cat.PHG031 IL), 20 ng/mL dexamethasone (Sigma, Cat.D4902-100 mg), 250 ng/mL human recombinant insulin (Gibco, Cat.41400045) and 100 U/mL penicillin. HBV virus at 200 genome equivalent (GE) per cell with 4% PEG8000 (Sigma, Cat.P1458) containing culture medium were added to the PHH culture medium for infection. The cells were then cultured for 24 hours in cell incubator. Then the cell culture supernatant was removed. The HBV-infected PHH were cultured with sandwich culture method with PHH culture medium containing 1% DMSO and 0.25 mg/mL matrix gel for 72 hours. The supernatant was then refreshed with PHH culture medium containing different concentrations of testing compounds for two times with 72-hour interval. At the end of treatment, the supernatant was collected for viral markers measurements, including HBsAg, HBeAg, HBV DNA and cytotoxicity. HBsAg and HBeAg were detected using alphalisa method using their specific antibodies. For HBV DNA detection, HBV DNA Quantitative Fluorescence Diagnostic Kit (Sansure Biotech Inc.) was used following the manufacture's protocol. Cytotoxicity was determined using Cell Counting Kit-8 (CCK8, Dojindo Molecular Technologies, Inc.).

HBeAg = test: microbe, parasite or virus in culture; format: cell-based, HBV; conditions: Hepatitis B virus, read-out: HBeAg IC50
[2] = Human microsome stability assay; format: in vitro ADME; conditions: 1 μM compound, 0.5 mg/mL microsomal protein, 37° C.; detection limit 6.15 mL/min/kg
Protocol: Human Microsome Stability Assay The human microsomal stability assay is used for early assessment of metabolic stability of a test compound in human liver microsomes. Human liver microsomes (Cat. […] The reactions were initiated by adding NADPH regenerating system. […] Following precipitation and centrifugation, the amount of compound remaining in the samples were determined by LC-MS/MS. Controls of no NADPH regenerating system at zero and 30 minutes were also prepared and analyzed.

| Structure (SMILES) | IC50 (HBsAg) [nM] | TI (CC50/IC50 HBsAg) [1] | IC50 (HBeAg) [nM] | Clearance of human microsome [2] [mL/min/kg] |
| --- | --- | --- | --- | --- |
| CS(=O)(=O)C1(c2ncc(C(=O)NC34CC(c5nc(-c6ccc(Cl)cc6)cs5)(C3)C4)o2)CC1 [Example 6, N-[3-[4-(4-chlorophenyl)thiazol-2-yl]-1-bicyclo[1.1.1]pentanyl]-2-(1-methylsulfonylcyclopropyl)oxazole-5-carboxamide] | 80 | 81.63 | 50 | ≤6.15 |
| CS(=O)(=O)C1(c2ccc(C(=O)NC34CC(c5nc(-c6ccc(Cl)c(Cl)c6)cs5)(C3)C4)o2)CC1 [Example 8, N-[3-[4-(3,4-dichlorophenyl)thiazol-2-yl]-1-bicyclo[1.1.1]pentanyl]-5-(1-methylsulfonylcyclopropyl)furan-2-carboxamide] | 160 | 16.69 | 110 | ≤6.15 |
| CS(=O)(=O)C1(c2ccc(C(=O)NC34CC(c5nc(-c6ccc(Cl)cn6)cs5)(C3)C4)o2)CC1 [Example 10, N-[3-[4-(5-chloro-2-pyridyl)thiazol-2-yl]-1-bicyclo[1.1.1]pentanyl]-5-(1-methylsulfonylcyclopropyl)furan-2-carboxamide] | 280 | 31.11 | 200 | ≤6.15 |
| CS(=O)(=O)C1(c2ccc(C(=O)NC34CC(c5nc(-c6ccccc6)cs5)(C3)C4)o2)CC1 [Example 13, 5-(1-methylsulfonylcyclopropyl)-N-[3-(4-phenylthiazol-2-yl)-1-bicyclo[1.1.1]pentanyl]furan-2-carboxamide] | 770 | 12.38 | 560 | ≤6.15 |
| CS(=O)(=O)C1(c2ccc(C(=O)NC34CC(c5nc(-c6ccc(Cl)cc6)ns5)(C3)C4)o2)CC1 [Example 18, N-[3-[3-(4-chlorophenyl)-1,2,4-thiadiazol-5-yl]-1-bicyclo[1.1.1]pentanyl]-5-(1-methylsulfonylcyclopropyl)furan-2-carboxamide] | 190 | 39.05 | 120 | 8.8 |
| CS(=O)(=O)C1(c2ccc(C(=O)NC34CC(c5ncc(-c6ccc(Cl)cc6)s5)(C3)C4)o2)CC1 [Example 19, N-[3-[5-(4-chlorophenyl)thiazol-2-yl]-1-bicyclo[1.1.1]pentanyl]-5-(1-methylsulfonylcyclopropyl)furan-2-carboxamide] | 210 | >47.62 | 160 | ≤6.15 |
| CS(=O)(=O)C1(c2ccc(C(=O)NC34CC(c5ncc(-c6ccc(Cl)c(Cl)c6)s5)(C3)C4)o2)CC1 [Example 21, N-[3-[5-(3,4-dichlorophenyl)thiazol-2-yl]-1-bicyclo[1.1.1]pentanyl]-5-(1-methylsulfonylcyclopropyl)furan-2-carboxamide] | 70 | 29.86 | 70 | 6.66 |
| CS(=O)(=O)C1(c2ccc(C(=O)NC34CC(c5csc(-c6ccccc6)n5)(C3)C4)o2)CC1 [Example 26, 5-(1-methylsulfonylcyclopropyl)-N-[3-(2-phenylthiazol-4-yl)-1-bicyclo[1.1.1]pentanyl]furan-2-carboxamide] | 780 | 8.91 | 530 | ≤6.15 |
| CS(=O)(=O)C1(c2ccc(C(=O)NC34CC(c5csc(-c6ccc(Cl)cc6)n5)(C3)C4)o2)CC1 [Example 27, N-[3-[2-(4-chlorophenyl)thiazol-4-yl]-1-bicyclo[1.1.1]pentanyl]-5-(1-methylsulfonylcyclopropyl)furan-2-carboxamide] | 130 | 39.46 | 90 | ≤6.15 |
| CS(=O)(=O)Cc1nsc(C(=O)NC23CC(c4nc(-c5ccc(Cl)cc5)no4)(C2)C3)n1 [Example 33, N-[3-[3-(4-chlorophenyl)-1,2,4-oxadiazol-5-yl]-1-bicyclo[1.1.1]pentanyl]-3-(methylsulfonylmethyl)-1,2,4-thiadiazole-5-carboxamide] | 440 | >22.73 | 370 | ≤6.15 |
| CS(=O)(=O)C1(c2nsc(C(=O)NC34CC(c5nc(-c6ccc(F)cc6)no5)(C3)C4)n2)CC1 [Example 35, N-[3-[3-(4-fluorophenyl)-1,2,4-oxadiazol-5-yl]-1-bicyclo[1.1.1]pentanyl]-3-(1-methylsulfonylcyclopropyl)-1,2,4-thiadiazole-5-carboxamide] | 50 | 79.80 | 40 | ≤6.15 |
| CS(=O)(=O)C1(c2ccc(C(=O)NC34CC(c5ccn(-c6ccc(Cl)cc6)n5)(C3)C4)o2)CC1 [Example 42, N-[3-[1-(4-chlorophenyl)pyrazol-3-yl]-1-bicyclo[1.1.1]pentanyl]-5-(1-methylsulfonylcyclopropyl)furan-2-carboxamide] | 590 | 13.39 | 340 | 8.21 |
| CS(=O)(=O)C1(c2nsc(C(=O)NC34CC(c5ccn(-c6ccc(Cl)cc6)n5)(C3)C4)n2)CC1 [Example 43, N-[3-[1-(4-chlorophenyl)pyrazol-3-yl]-1-bicyclo[1.1.1]pentanyl]-3-(1-methylsulfonylcyclopropyl)-1,2,4-thiadiazole-5-carboxamide] | 90 | >111.11 | 80 | ≤6.15 |
| CS(=O)(=O)C1(c2ccc(C(=O)NC34CC(c5nnn(-c6ccc(Cl)cc6)n5)(C3)C4)o2)CC1 [Example 44, N-[3-[2-(4-chlorophenyl)tetrazol-5-yl]-1-bicyclo[1.1.1]pentanyl]-5-(1-methylsulfonylcyclopropyl)furan-2-carboxamide] | 350 | 12.20 | 270 | ≤6.15 |
| CS(=O)(=O)C1(c2ccc(C(=O)NC34CC(c5ccnc(-c6ccc(Cl)cc6)n5)(C3)C4)o2)CC1 [Example 47, N-[3-[2-(4-chlorophenyl)pyrimidin-4-yl]-1-bicyclo[1.1.1]pentanyl]-5-(1-methylsulfonylcyclopropyl)furan-2-carboxamide] | 150 | 59.67 | 140 | ≤6.15 |
